These are literature values, as cited in patent US5872104A, “Combinations and methods for reducing antimicrobial resistance” (Oridigm Corporation, priority 1994, dated 1999).

Values after ≈ are worked out from the molar mass of the structure shown. Counter-ions that a name gives are not always drawn. Like-named read-outs stand apart in the source and are kept apart here.

By inhibition is commonly meant the relative decrease from the control value, in per cent. What is called Ki is a measure of affinity in units of concentration, obtained from inhibition or displacement. For orientation: MIC50 means an inhibitory concentration at the 50% level, which refers to growth in some studies and to a panel of isolates in others. The MIC90 is an inhibitory concentration at the 90% level, which refers to growth in some studies and to a panel of isolates in others.

Data set [1] relates to SAH in hepatocytes. To be noted: cited from earlier work.
In data set [2] the test system is bovine liver SAHH. The note with it: 0.2 mM; cited from earlier work.
For data set [3], the target named is ornithine decarboxylase (ODC). The note with it: cited from earlier work.
The subject of data set [4] is E. coli glutathione synthetase. To be noted: cited from earlier work.
The test system of data set [5] is methylation reactions in peripheral blood monocytes. To be noted: cited from earlier work.
The subject of data set [6] is Dictyostelium discoideum. The note with it: 5 mM, four hours; cited from earlier work.
The test system of data set [7] is RNA synthesis in Hela cells. The note with it: cited from earlier work.
Data set [8] has as its system S-Adenosylmethionine Decarboxylase (SAM-DC). To be noted: cited from earlier work.
Data set [9] deals with tRNA methylases isolated from E. coli. To be noted: cited from earlier work.
In data set [10] the test system is tRNA methylases. The note with it: cited from earlier work.
For data set [11], the system named is rRNA of S. cerevisiae. The note with it: cited from earlier work.
In data set [12] the test system is mature rRNA in Novikoff hepatoma cells. To be noted: cited from earlier work.
Data set [13] has as its system adenosine deaminase. The note with it: cited from earlier work.
Data set [14] concerns RNA methylation. The note with it: cited from earlier work.
The subject of data set [15] is Mycoplasma pneumoniae. To be noted: cited from earlier work.
Data set [16] deals with Staphylococcus aureus. To be noted: cited from earlier work.
Data set [17] deals with Ureaplasma urealyticum. To be noted: cited from earlier work.
Data set [18] has as its system Mycoplasma hominis. The note with it: cited from earlier work.
Data set [19] has as its system Trypanosomiasis. To be noted: cited from earlier work.
Data set [20] relates to SAM synthetase. The note with it: cited from earlier work.
The test system of data set [21] is lysosomal ADA. To be noted: 0.2 mM; cited from earlier work.
The test system of data set [22] is 28S rRNA, 18S rRNA and tRNA. To be noted: NPA 10 μM; c^3 -NPA 10 μM; c^3 -Ari 100 μM; cited from earlier work.
Data set [23] concerns SAHH hydrolase. To be noted: cited from earlier work.
The subject of data set [24] is glutathione. To be noted: ip.; 4.5 mmol/kg buthionine sulfoximine and […] diethyl maleate; cited from earlier work.
Data set [25] has as its system arginine decarboxylase. To be noted: cited from earlier work.

For the compound `Nc1ncnc2c1ncn2C[C@@H](O)[C@@H](O)C(=O)O` [D-eritadine], the “inactivation of SAH” value in data set [1] is recorded as “inactivate SAH in hepatocytes”.
As for `Nc1ncnc2c1nnn2[C@@H]1C[C@H](CO)[C@@H](O)[C@H]1O` [8-azaaristeromycin], in data set [2], the inhibition is listed as 46%.
Take `COC(=O)C(N)(C=CCN)CF` (racemic) [DL-α-monofluoromethyldehydroornithine methylester]: the Ki in data set [3] was 3000 nM.
On to `CN(Cc1cnc2nc(N)nc(N)c2n1)c1ccc(C(=O)N[C@@H](CCC(=O)O)C(=O)O)cc1` [Methotrexate], for which, in data set [4], the inhibition result is given as “potently inhibited”. In data set [5] (cultured cells and patients), the SAH metabolism entry is recorded as “affects SAH metabolism”. In addition, in [5] (low concentrations, in vitro), the methylation reactions entry is “interfere with specific methylation reactions”.
As to `C[C@](N)(CCCN)C(=O)O` [α-methylornithine], in [6], the “growth of D. discoideum” value is recorded as “arrested in four hours”.
As to `Nc1ncnc2c1ncn2[C@@H]1O[C@H](CO)C[C@H]1O` [Cordycepin, 3'-deoxyadenosine], the RNA synthesis entry in data set [7] (200 μg/ml) was “totally inhibits RNA synthesis”. In addition, in data set [7], the “DNA and protein synthesis” value is recorded as “not affected”; the “synthesis of mature rRNA, ribosomal precursor 45S RNA and tRNA” value was “inhibits the synthesis of mature rRNA, ribosomal precursor 45S RNA and tRNA”. Besides, the “rRNA and tRNA syntheses” value in [7] (lower concentrations) is “selectively inhibited”.
In the case of `CN(CCCNN)C[C@H]1O[C@@H](n2cnc3c(N)ncnc32)[C@H](O)[C@@H]1O` [MHZPA, 5'-deoxy-5'-[(3-hydrazinopropyl)methylamino]adenosine], the SAM-DC inhibition entry in data set [8] is recorded as “powerful irreversible inhibitors of SAM-DC”.
With `Nc1ncnc2nc[nH]c12` [adenine], the “inhibition of E. coli tRNA methylases” value in [9] is on record as “inhibitory to tRNA methylases isolated from E. coli”. For the same compound, the “inhibition of tRNA methylases” value in [10] is on record as “gave inhibition that would be acceptable”.
In the case of `CN(C/C=C\CN)C[C@H]1O[C@@H](n2cnc3c(N)ncnc32)[C@H](O)[C@@H]1O` [AbeAdo, 5'-{[(Z)-4-amino-2-butenyl]methylamino}-5'-deoxyadenosine], the SAM-DC inhibition result in data set [8] is listed as “powerful irreversible inhibitors of SAM-DC”.
Turning to `NCC(O)CN` [1,3-diaminopropan-2-ol], in data set [6], the “growth of D. discoideum” value is on record as “arrested in four hours”.
For the compound `N#Cc1cn([C@@H]2O[C@H](CO)[C@@H](O)[C@H]2O)c2ncnc(N)c12` [toyocamycin], the “maturation of rRNA” value in [11] is given as “inhibit the maturation of rRNA”. Besides, the “formation of mature rRNA” value in [12] is “inhibit the formation of mature 28S and 18”.
Regarding `OC[C@H]1O[C@@H](n2cnc3c2N=CNC[C@H]3O)[C@H](O)[C@@H]1O` [Coformycin], the ADA inhibition entry in data set [13] is listed as “potent inhibitors of ADA”.
As to `Nc1ncnc2c1ncn2[C@@H]1O[C@H](CO)[C@H](O)[C@H]1O` [xylosyladenine, 9-B-D-xylofuranosyladenine], in [14], the DNA methylation entry is reported as “not inhibited”; the “formation of methyluridine, 2'-O-methylcytidine, 5-methyluridine and 5-methylcytidine in RNA” value is “reduced”; the “inhibition of RNA methylation” value is “marked inhibition of RNA methylation”.
As to `CCC[C@@H]1C[C@@H](C(=O)N[C@@H]([C@H]2O[C@H](SC)[C@H](O)[C@@H](O)[C@H]2O)[C@@H](C)O)N(C)C1` [Lincomycin], the MIC50 in [15] is 8 µg/mL (≈ 19.7 µM); in [16], 1 µg/mL (≈ 2.46 µM); in data set [17], not below 128 µg/mL; in data set [18] it was 2 µg/mL (≈ 4.92 µM). The MIC90 in [15] was 32 µg/mL (≈ 78.7 µM); in data set [16] it was 1 µg/mL (≈ 2.46 µM); in data set [17] it was not below 128 µg/mL; in data set [18], 4 µg/mL (≈ 9.84 µM). Moreover, the Range in data set [15] is given as 2-32; in [16] it was 0.5-512; in data set [18] it was 0.5-16.
Regarding `Nc1nc2c(ncn2[C@@H]2O[C@H](CO)[C@@H](O)[C@H]2O)c(=S)[nH]1` [6-thioguanosine], the “formation of mature rRNA” value in data set [12] was “inhibit the formation of mature 28S and 18”.
Consider `NCCCC(N)(C(=O)O)C(F)F` (centres unmarked) [DFMO, difluoromethylornithine], for which the ODC inhibition result in data set [3] is recorded as “irreversible inhibitor of ornithine decarboxylase”. For the same compound, the clinical effectiveness result in data set [19] (different dosage levels and modes of treatment) is “effective against Trypanosomiasis”. Besides, the safety result in data set [19] (human, in vivo) was “safe and well tolerated and the side effects are reversible”.
Take `COc1cc(Cc2cnc(N)nc2N)cc(OC)c1OC` [trimethoprim]: in [4], the inhibition entry is listed as “potently inhibited”.
For `Nc1ncnc2c1ncn2[C@@H]1O[C@H](COP(=O)(O)NP(=O)(O)OP(=O)(O)O)[C@@H](O)[C@H]1O` [AMPNPP], in [20], the “effectiveness, fold versus AMPCPP” value is reported as “about 1000 fold”; the “inhibition constant, fold less than the Km of ATP” value was 60 fold; the “substrate and inhibitor of SAM synthetase” value was “both a substrate for SAM synthetase and a potent inhibitor”.
Take `Nc1ncnc2c1ncn2[C@@H]1O[C@H](CO)[C@@H](O)[C@H]1O` [adenosine]: in [9], the “inhibition of E. coli tRNA methylases” value was “inhibitory to tRNA methylases isolated from E. coli”.
In the case of `CCCCCC[C@H]([C@H](C)O)n1cnc2c(N)ncnc21` (relative stereo) [erythro-9-(2-hydroxy-3-nonyl)adenine], the “inhibition of lysosomal ADA” value in [21] was more than 97%. Also, the ADA inhibition entry in data set [13] was “inhibitors of ADA”.
With `CNc1ncnc2c1ncn2[C@@H]1C[C@H](CO)[C@@H](O)[C@H]1O` [N^6 -methylaristeromycin], the inhibition in data set [2] was 22%.
Take `Nc1ncnc2c1ncn2C[C@H](O)[C@H](O)C(=O)O` [L-eritadenine]: the “inactivation of SAH” value in data set [1] is “inactivate SAH in hepatocytes”.
In the case of `Nc1nccc2c1ncn2[C@@H]1C[C@H](CO)[C@@H](O)[C@H]1O` [c^3 -Ari, 3-deazaaristeromycin], the “methylation of 28S rRNA, 18S rRNA and tRNA” value in data set [22] was “inhibit the methylation of 28S rRNA, 18S rRNA and tRNA”. Besides, the “antiviral activity and cytotoxicity vs first generation” value in [23] was “retained antiviral activity and considerably lower cytotoxicity than their parent first generation inhibitors”. In addition, the inhibition in data set [2] is 97%.
For `Nc1ncnc2c1ncn2C[C@H](O)[C@@H](O)C(=O)O` [L-threo-eritadenine], the “inactivation of SAH” value in data set [1] was “inactivate SAH in hepatocytes”.
With `CCOC(=O)/C=C\C(=O)OCC` [diethyl maleate], in [24], the depletion of glutathione result was “depleted liver and aortic glutathione”.
Regarding `N=C(N)NCCCC(N)(C(=O)O)C(F)F` (racemic) [DFMA, difluoromethylarginine], the arginine decarboxylase inhibition entry was “irreversible inhibitor of ADC” in data set [25]; “potent and irreversible inhibitor of bacterial ADC” in data set [25] (listed as DL-α-(difluoromethyl)arginine).
